Experimental data: US20230312580A1, “1-(5-(2-CYANOPYRIDIN-4-YL)OXAZOLE-2-CARBONYL)-4-METHYLHEXAHYDROPYRROLO[3,4-B]PYR ROLE-5(1H)-CARBONITRILE AS USP30 INHIBITOR FOR USE IN THE TREATMENT OF MITOCHONDRIAL DYSFUNCTION, CANCER AND FIBROSIS” (MISSION THERAPEUTICS LIMITED, priority 2020, published 2023)
Values after ≈ are worked out from the molar mass of the structure shown. Values belong to the molecule of their own block, whether it stands above or below them.

Assays:
[1] = tested on: USP2, USP6, USP10, USP16, USP21, USP25, USP28; experiment: DUB IC50 selectivity panel (seven DUBs); format: biochemical; conditions: range over the seven DUBs
[2] = biological target: UCHL1 (Homo sapiens (Human), UniProt P09936); experiment: UCHL1 DUB IC50; format: biochemical
[3] = biological target: Cathepsin B (Homo sapiens (Human), UniProt P07858); experiment: Cathepsin B IC50; format: biochemical
[4] = biological target: Cathepsin L (Homo sapiens (Human), UniProt P07711); experiment: Cathepsin L IC50; format: biochemical
[5] = biological target: Cathepsin V (Homo sapiens (Human), UniProt O60911); experiment: Cathepsin V IC50; format: biochemical
[6] = tested on: cathepsins (B, K, L, S and V); experiment: Cathepsin IC50 panel, summary over B, K, L, S, V; format: biochemical; conditions: range over the five cathepsins
[7] = tested on: Eurofins CEREP SafetyScreen44 panel; experiment: Eurofins CEREP SafetyScreen44 panel profiling; format: binding; conditions: single concentration of 10 µM
Excerpt: Aside from selectivity over other DUB enzymes, it is important for a drug to have low affinity for other targets, and pharmacological profiling may be performed against panels of targets to assess the potential for, and to minimise, potential off-target effects. Examples of targets for which the compounds of the present invention may be screened against are those of the industry standard Eurofins-Cerep SafetyScreen44 panel, which includes 44 targets as a representative selection of GPCR receptors, transporters, ion channels, nuclear receptors, and kinase and non-kinase enzymes. Preferably, compounds of the invention have insignificant affinity against targets of this screening panel. Further examples of targets for which the compounds of the present invention may be screened against are kinases of the Thermo Fisher SelectScreen kinase profiling panel, which includes 39 targets as a representative selection of kinase enzymes. Preferably, compounds of the invention have insignificant affinity against targets of this screening panel. Additionally, examples of a particular enzyme class for which the compounds of the present invention may be screened against are the cathepsins (e.g. cathepsin A, B, C, H, K, L, L2, S, V and Z). Preferably, compounds of the invention have good selectivity for USP30 over one or more of these enzymes.

[8] = biological target: hERG potassium channel (Homo sapiens (Human), UniProt Q12809); experiment: hERG potassium channel current in stably expressed CHO cells; format: cell-based; conditions: at 30 µM, 0.01 to 30 µM tested
Excerpt: The hERG predictor assay provides valuable information about the possible binding of test compounds to the potassium channel and potential QT prolongation on […]. Inhibition of the hERG current causes QT interval prolongation resulting in potentially fatal ventricular tachyarrhythmia (Torsades de Pointes). Typically, assay data may be generated from an automated patch-clamp assay platform.

[9] = tested on: TK6 cells; experiment: In vitro micronucleus assay; format: cell-based; conditions: 27 hours recovery
Procedure: The micronucleus assay may be used to determine if a compound is genotoxic by evaluating the presence of micronuclei. Micronuclei may contain chromosome fragments produced from DNA breakage (clastogens) or whole chromosomes produced by disruption of the mitotic apparatus (aneugens).
Induction of chromosome damage was assessed using the in vitro micronucleus assay in TK6 cells.

[10] = tested on: HCT116 human colorectal carcinoma cells; experiment: In vitro cytotoxicity (Cell Tox), alamarBlue; format: cell-based; conditions: HCT-116, 96-hour continual compound exposure
Excerpt: There is also a need for compounds that have a favourable safety profile, which may be measured by a variety of standard in vitro and in vivo methods. A cell toxicity counter-screen may be used to assay the anti-proliferative/cytotoxic effect in a particular cell line (e.g. HCT116) by fluorometric detection of rezasurin (alamarBlue™) to resofurin in response to mitochondrial activity.
In Vitro Cytotoxicity (Cell Tox): Measured in HCT116 human colorectal carcinoma cells using alamarBlue™ as the assay endpoint. Compound cytotoxicity was measured over a period of 96-hour continual compound exposure.

[11] = Log D lipophilicity measurement; format: physicochemical; conditions: pH 7.4; read-out: Log D measured at pH 7.4
Excerpt: log D: distribution co-efficient; lipophilicity measurement.

[12] = Turbidimetric solubility; format: physicochemical; conditions: aqueous buffer, kinetic from dmso stock
Excerpt: The solubility of a compound is an important factor in achieving a desired concentration of drug in systemic circulation for the anticipated pharmacological response. Low aqueous solubility is a problem encountered with formulation development of new chemical entities and to be absorbed a drug must be present in the form of solution at the site of absorption. The kinetic solubility of a compound may be measured using a turbidimetric solubility assay, the data from which may also be used in conjunction with Caco-2 permeability data to predict dose dependent human intestinal absorption.
Turbidimetric solubility: Test compound solution prepared in DMSO diluted into aqueous buffer. Turbidimetry is used as the end-point by measuring absorbance at 620 nm.

[13] = FaSSIF solubility; format: physicochemical; conditions: pH 6.5, fasted state simulated intestinal fluid
Excerpt: FaSSIF: simulated intestinal fluid in fasted state measured at pH 6.5.

[14] = Hepatocyte Cl mouse; format: in vitro ADME; conditions: mouse hepatocytes
Procedure: Hep Cl mouse: in vitro hepatocyte clearance in mouse cells.
(§1) Clu: in vitro clearance. Clu as defined here is the scaled clearance, in turn calculated from the intrinsic clearance. The intrinsic clearance is the predicted clearance due to hepatic metabolic reactions, determined from incubation of a compound in a hepatocyte preparation.

[15] = Hepatocyte Cl human; format: in vitro ADME; conditions: human hepatocytes
Procedure: Hep Cl human: in vitro hepatocyte clearance in human cells.
as §1

[16] = Mouse plasma stability; format: in vitro ADME; conditions: for half-life: read-out: Stability Mouse plasma t½
Excerpt: Other parameters that may be measured using standard assays that are indicative of a compound’s exposure profile include, for example plasma stability (half-life measurement), blood AUC, Cmax, Cmin and Tmax values.

[17] = WT-MDCK in vitro flux; format: in vitro ADME; conditions: dog
[18] = Plasma binding mouse (equilibrium dialysis); format: in vitro ADME; conditions: read-out: Binding Mouse Plasma fu,p
Excerpt: (§2) Plasma fu,p: The free fraction of a compound in plasma preparation determined by in vitro equilibrium dialysis. It is understood that only unbound (free) compound is capable of engaging with the target. Brain fu,br: The free fraction of a compound in brain homogenate preparation determined by in vitro equilibrium dialysis. It is understood that only unbound (free) compound is capable of engaging with the target.

[19] = Brain homogenate binding mouse (equilibrium dialysis); format: in vitro ADME; conditions: read-out: Binding Mouse Brain fu,br
Excerpt: as §2

[20] = PK mouse (IV and oral); format: in vivo; conditions: plasma
Excerpt: Cl in vivo clearance: Pharmacokinetic measurement of the volume of plasma (or any matrix) from which a substance is completely removed per unit time.

[21] = Mouse PK microdialysis; format: in vivo
Excerpt: (§3) Kpuu is the ratio of unbound drug in brain to unbound drug in plasma and may be indicative of potential for treating peripheral and/or CNS indications.

[22] = Rat PK microdialysis; format: in vivo; conditions: microdialysis 30 mg/kg po
Excerpt: as §3

[23] = Dog PK (CSF); format: in vivo
Excerpt: as §3

[24] = tested on: UUO injured kidneys; experiment: Unilateral ureteral obstructive kidney disease model (UUO); format: in vivo, C57BL/6 mice; conditions: 10 days
Excerpt: UUO causes renal injury characterised by tubular cell injury, interstitial inflammation and fibrosis. It serves as a model of irreversible post-renal acute kidney injury (AKI). Experimental UUO has illustrated the molecular mechanisms of apoptosis, inflammation and fibrosis, all of which are key processes in renal injury, regardless of the primary insult. Consequently, the UUO model provides investigators information beyond obstruction (Chevalier et al, 2009, Kidney Int 75(11): 1145-1152). Example 1 was assessed in the UUO model to determine the ability of the compound to attenuate progressive tubulointerstitial fibrosis and chronic kidney disease (CKD). […] Two hours post dosing on day 1 study mice underwent surgery to ligate the left ureter at two points. Successful UUO surgery was later confirmed by observation of dilation of renal pelvis due to hydronephrosis. The animals were dosed according to their prescribed regimen for 10 days at which point kidneys were harvested, or histopathology assessment and for protein/RNA assessment. Picrosirius Red staining was performed to assess the extent of collagen deposition and IHC was employed to assess relative α-Smooth Muscle Actin (α-SMA) expression.

[25] = tested on: Salmonella typhimurium strains TA98, TA100, TA1535 and TA97a and the Escherichia Coli strain WP2 uvrA pKM101; experiment: Bacterial reverse mutation assay (Ames); conditions: up to 5000 µg/plate with and without metabolic activation
Procedure: The bacterial reverse mutation assay (Ames Test) may be used to evaluate the mutagenic properties of compounds of the invention, commonly by using the bacterial strain Salmonella typhimurium, which is mutant for the biosynthesis of the amino acid histidine.
All in vitro tests were conducted with and without exogenous metabolic activation using concentrations up to those limited by cytotoxicity or insolubility.

[26] = biological target: USP30 (Homo sapiens (Human), UniProt Q70CQ3); experiment: USP30 biochemical IC50 assay (fluorescence polarisation); conditions: biochemical FP assay, 30 min enzyme/compound incubation
Procedure: Compounds of the invention may be tested for USP30 affinity using the in vitro biochemical fluorescence polarization (FP) assay described herein.
Dilution plates were prepared at 21 times the final concentration (2100 µM for a final concentration of 100 µM) in 50% DMSO in a 96-well polypropylene V-bottom plate (Greiner #651201). A typical 8-point dilution series would be 100, 30, 10, 3, 1, 0.3, 0.1, 0.03 µM final. Reactions were performed in duplicate in black 384 well plates (small volume, Greiner 784076) in a final reaction volume of 21 µl. Either 1 µl of 50% DMSO or diluted compound was added to the plate. USP30 (Boston Biochem #E582) was diluted in reaction buffer (40 mM Tris, pH 7.5, 0.005% Tween 20, 0.5 mg/ml BSA, 5 mM beta-mercaptoethanol) to achieve a final assay concentration of 4 nM, and 10 µl of diluted USP30 was added to the compound. Enzyme and compound were incubated for 30 min at room temp. Reactions were initiated by the addition of 50 nM of TAMRA labelled peptide linked to ubiquitin via an iso-peptide bond as fluorescence polarisation substrate. Reactions were read immediately after addition of substrate and following a 2-hour incubation at room temperature. Readings were performed on a Pherastar Plus (BMG Labtech). λ Excitation 540 nm; λ Emission 590 nm.

UCHL1, sequence (P09936 whole entry, species assumed): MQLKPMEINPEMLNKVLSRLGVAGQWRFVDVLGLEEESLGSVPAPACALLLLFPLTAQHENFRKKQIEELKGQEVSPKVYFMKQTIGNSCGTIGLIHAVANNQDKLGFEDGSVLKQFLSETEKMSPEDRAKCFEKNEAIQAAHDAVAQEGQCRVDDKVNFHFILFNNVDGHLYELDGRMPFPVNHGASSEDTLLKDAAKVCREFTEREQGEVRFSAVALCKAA
Cathepsin V, sequence (O60911 114-334, species assumed): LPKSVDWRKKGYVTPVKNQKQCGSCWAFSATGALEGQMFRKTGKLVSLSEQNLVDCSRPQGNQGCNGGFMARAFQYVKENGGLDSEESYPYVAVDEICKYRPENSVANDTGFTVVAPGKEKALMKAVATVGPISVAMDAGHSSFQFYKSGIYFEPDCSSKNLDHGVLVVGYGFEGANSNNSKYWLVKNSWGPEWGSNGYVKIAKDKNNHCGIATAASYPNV
Cathepsin L, sequence (P07711 114-333, species assumed): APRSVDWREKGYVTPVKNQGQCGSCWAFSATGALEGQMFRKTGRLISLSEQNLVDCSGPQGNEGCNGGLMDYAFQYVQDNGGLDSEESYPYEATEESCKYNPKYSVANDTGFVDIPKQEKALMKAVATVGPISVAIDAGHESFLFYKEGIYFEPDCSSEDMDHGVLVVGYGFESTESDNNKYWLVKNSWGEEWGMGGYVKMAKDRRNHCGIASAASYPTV
USP30, sequence (Q70CQ3 57-517): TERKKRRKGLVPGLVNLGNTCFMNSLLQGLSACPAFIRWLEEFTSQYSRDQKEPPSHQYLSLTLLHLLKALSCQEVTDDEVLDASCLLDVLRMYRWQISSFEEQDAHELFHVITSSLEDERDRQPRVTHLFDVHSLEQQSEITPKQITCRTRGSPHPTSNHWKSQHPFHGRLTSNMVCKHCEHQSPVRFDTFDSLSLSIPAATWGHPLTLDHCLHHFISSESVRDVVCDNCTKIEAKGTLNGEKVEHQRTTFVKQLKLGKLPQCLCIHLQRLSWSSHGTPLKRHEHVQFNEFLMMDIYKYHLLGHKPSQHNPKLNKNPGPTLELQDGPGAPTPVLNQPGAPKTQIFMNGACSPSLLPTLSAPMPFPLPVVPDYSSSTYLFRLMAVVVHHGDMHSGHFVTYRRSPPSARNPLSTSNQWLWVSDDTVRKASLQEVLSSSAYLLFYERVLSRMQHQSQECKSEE
hERG potassium channel, sequence (Q12809 whole entry): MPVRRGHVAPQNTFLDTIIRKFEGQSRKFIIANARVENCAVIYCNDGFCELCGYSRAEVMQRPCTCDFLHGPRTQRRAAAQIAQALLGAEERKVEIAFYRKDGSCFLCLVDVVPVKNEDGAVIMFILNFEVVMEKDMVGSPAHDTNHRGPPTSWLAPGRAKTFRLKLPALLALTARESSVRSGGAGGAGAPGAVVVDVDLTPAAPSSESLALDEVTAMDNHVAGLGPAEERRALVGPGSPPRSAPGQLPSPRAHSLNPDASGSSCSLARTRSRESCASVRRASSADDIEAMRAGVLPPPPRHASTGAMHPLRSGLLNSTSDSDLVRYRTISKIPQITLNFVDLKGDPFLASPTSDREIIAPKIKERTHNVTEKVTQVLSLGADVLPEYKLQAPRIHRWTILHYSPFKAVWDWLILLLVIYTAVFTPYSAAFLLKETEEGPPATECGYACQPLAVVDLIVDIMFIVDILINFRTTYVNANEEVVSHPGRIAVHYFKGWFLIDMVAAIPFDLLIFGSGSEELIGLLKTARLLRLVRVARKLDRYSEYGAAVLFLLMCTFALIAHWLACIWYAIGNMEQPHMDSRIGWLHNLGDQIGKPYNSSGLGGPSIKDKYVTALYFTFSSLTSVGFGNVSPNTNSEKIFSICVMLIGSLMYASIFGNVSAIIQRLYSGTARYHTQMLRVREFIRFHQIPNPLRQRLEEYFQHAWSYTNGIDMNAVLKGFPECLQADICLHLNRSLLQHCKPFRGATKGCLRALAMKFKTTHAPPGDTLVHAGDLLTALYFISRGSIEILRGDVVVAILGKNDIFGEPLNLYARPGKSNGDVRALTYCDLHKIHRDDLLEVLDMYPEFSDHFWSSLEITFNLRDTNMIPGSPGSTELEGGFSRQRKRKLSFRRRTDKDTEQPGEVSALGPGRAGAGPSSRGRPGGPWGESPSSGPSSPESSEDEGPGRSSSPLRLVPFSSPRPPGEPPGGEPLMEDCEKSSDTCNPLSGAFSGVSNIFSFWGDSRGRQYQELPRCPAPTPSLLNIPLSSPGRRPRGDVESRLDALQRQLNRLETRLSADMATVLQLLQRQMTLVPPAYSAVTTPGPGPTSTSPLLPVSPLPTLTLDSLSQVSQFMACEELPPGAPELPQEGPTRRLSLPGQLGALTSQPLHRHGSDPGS

SMILES: C[C@@H]1[C@H]2CCN(C(=O)c3ncc(-c4ccnc(C#N)c4)o3)[C@H]2CN1C#N (single isomer, unassigned) [Example 1]
IC50 [1]: 24.9 to 107 µM | IC50 [2]: > 300 µM | IC50 [3]: 205 µM | IC50 [4]: 42.1 µM | IC50 [5]: 247 µM | IC50 [6]: ≥ 42.1 µM | inhibition of binding or enzyme activity against all targets in the panel [7]: less than 50% | maximum inhibition of the hERG current amplitude [8]: 27% | induction of micronuclei ([9]; 3 hours in the presence of exogenous metabolic activation): negative | induction of micronuclei ([9]; 27 hours in the absence of exogenous metabolic activation): negative | EC50 [10]: > 30 µM | logD [11]: 1.4 | solubility [12]: 65 µM (≈ 22.6 µg/mL) | FaSSIF (µM) measured at pH 6.5 [13]: 488 µM | Hepatocyte Cl mouse scaled Clu [14]: 40 mL/min/kg | Hepatocyte Cl human scaled Clu [15]: 18 mL/min/kg | improved plasma stability compared to Reference Examples A, B and C [16]: 2 to 8 fold | half-life [16]: > 120 min | Papp A→B [17]: 16 ×10⁻⁶ cm/s | fraction unbound [18]: 0.14 | fraction unbound [19]: 0.3 | bioavailability ([20]; po, mouse 10 mg/kg, read-out: Oral F (%)): 87% | clearance ([20]; mouse 2 mg/kg IV, read-out: Cl plasma): 19 mL/min/kg | CNS distribution in vivo by microdialysis sampling of brain regions ([21]; 30 mg/kg oral dose in mice and rats): high CNS distribution | Mouse Kpuu (PFCu/plasmau) ([21]; microdialysis 30 mg/kg po): 0.90 | Mouse PFCu/cell TOM20-Ub ([21]; microdialysis 30 mg/kg po): 125-fold | Rat Kpuu (PFCu/plasmau) [22]: 0.43 | Dog Kpuu (CSF/plasmau) ([23]; 30 mg/kg po): 0.41 | partition to the cerebro-spinal fluid (CSF) ([23]; dogs, 30 mg/kg orally): high partition | α-SMA levels in UUO injured kidneys vs vehicle ([24]; 1.5 mg/kg oral BID): statistical reduction in α-SMA levels | collagen deposition (picrosirius red staining) in ligated kidneys ([24]; 1.5 mg/kg p.o. BID): statistically reduced collagen deposition | collagen deposition (picrosirius red staining) in ligated kidneys ([24]; 5 mg/kg p.o. BID): statistically reduced collagen deposition | induction of mutations in reverse mutation assay [25]: did not induce mutations

IC50 [26]: 0.07 µM | IC50 [1]: 0.54 to 38.8 µM | IC50 [3]: 1.4 µM | IC50 [4]: 1.8 µM | IC50 [5]: 2.3 µM | Hepatocyte Cl mouse scaled Clu [14]: > 121 mL/min/kg | half-life [16]: 21 min
SMILES: COc1ccc(-c2cc(C(=O)N3CC[C@@H]4CN(C#N)C[C@@H]43)on2)cc1 [B]

fold more potent against USP30 than UCHL1 [2]: 0.8 fold
SMILES: N#CN1CC[C@H](C(=O)Nc2ncc(-c3ccccc3)s2)C1 [D]

IC50 [26]: 0.072 µM | IC50 [1]: 4 to 92.4 µM | IC50 [3]: 1.2 µM | IC50 [4]: 1.3 µM | IC50 [5]: 18.5 µM | Hepatocyte Cl mouse scaled Clu [14]: 108 mL/min/kg | half-life [16]: 16 min
SMILES: Cc1cc(-c2cccc(C(=O)N3CC[C@@H]4CN(C#N)C[C@@H]43)c2)ccn1 [Reference Example C]

fold more potent against USP30 than UCHL1 [2]: 1.5 fold
SMILES: CC1CC(C(=O)Nc2ncc(-c3ccccc3)s2)CN1C#N (stereo not shown) [Reference Example E]
